Measured values from patent US20230085307A1, “PYRIDAZINONE COMPOUND AND HERBICIDE” (NISSAN CHEMICAL CORPORATION, priority 2019, published 2023).

Columns and labels:
[1] = system: Italian ryegrass; experiment: Test Example 4: herbicidal effect by soil treatment (Table 19, symbol K); type: in vivo, Italian ryegrass (Lolium multiflorum)
In short: (§1)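 Scoring uses the grading scale of an earlier test, three weeks post-application. Treatment consists of spraying a diluted emulsion formulation across the surface of sterilized diluvial soil in which seeds are buried near 1.5 cm deep; boxes are kept in a greenhouse between 25° C. and 30° C.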

[2] = system: wild oat; experiment: Test Example 4: herbicidal effect by soil treatment (Table 19, symbol I); type: in vivo, wild oat (Avena fatua)
In short: as §1

[3] = system: redroot pigweed; experiment: Test Example 4: herbicidal effect by soil treatment (Table 19, symbol N); type: in vivo, redroot pigweed (Amaranthus retroflexus)
In short: as §1

[4] = system: windgrass; experiment: Test Example 4: herbicidal effect by soil treatment (Table 19, symbol L); type: in vivo, windgrass (Apera spica-venti)
In short: as §1

[5] = system: blackgrass; experiment: Test Example 4: herbicidal effect by soil treatment (Table 19, symbol J); type: in vivo, blackgrass (Alopecurus myosuroides)
In short: as §1

[6] = system: false cleavers; experiment: Test Example 4: herbicidal effect by soil treatment (Table 19, symbol Q); type: in vivo, false cleavers (Galium spurium)
Description: [Test Example 4] Herbicidal Effect Test by Soil Treatment
Sterilized diluvial soil was placed in a plastic box having a length of 21 cm, a width of 13 cm, and a depth of 7 cm. The seeds of each of southern crabgrass, green foxtail, barnyard grass, wild oat, blackgrass, Italian ryegrass, windgrass, velvetleaf, redroot pigweed, lambsquarters, chickweed, false cleavers, persian speedwell, corn, soybean, rice, wheat, beet, and rapeseed were sowed in a spot-like manner and covered with the soil having a thickness of about 1.5 cm. Subsequently, the emulsion agent of the compound of the present invention prepared according to Formulation Example 2 was diluted with water so as to achieve a predetermined herbicide amount, and the diluted emulsion agent was uniformly applied to the surface of the soil with a small-sized spray. The plastic box was placed in a greenhouse at 25° C. to 30° C. for growth of the plants. Three weeks after the herbicide application, the effect of the herbicide on each plant was evaluated according to the criteria of Test Example 1.

[7] = system: lambsquarters; experiment: Test Example 5: herbicidal effect by foliage application, plastic box (Table 20, symbol O); type: in vivo, lambsquarters (Chenopodium album); details: evaluated three weeks after application
In short: (§2)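 Post-emergence foliar test in sterilized diluvial soil. Compound applied as water-diluted emulsion at a predetermined rate to 14-day-old plants; evaluation at three weeks.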

[8] = system: Italian ryegrass; experiment: Test Example 5: herbicidal effect by foliage application, plastic box (Table 20, symbol K); type: in vivo, Italian ryegrass (Lolium multiflorum); details: evaluated three weeks after application
In short: as §2

[9] = system: barnyard grass; experiment: Test Example 5: herbicidal effect by foliage application, plastic box (Table 20, symbol H); type: in vivo, barnyard grass (Echinochloa crus-galli); details: evaluated three weeks after application
In short: as §2

[10] = system: barnyard grass; experiment: Test Example 3: herbicidal effect by foliage application, Wagner pot (Table 18, symbol H); type: in vivo, barnyard grass (Echinochloa crus-galli)
In short: (§3)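 Plants were sown in alluvial soil held under 0.1–0.5 cm standing water and grown 14 days in a greenhouse at 25–30 °C. An emulsifiable formulation, water-diluted to the set dose, was then sprayed onto the foliage, and effects were scored three weeks later using previously defined criteria.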

[11] = system: rice flat sedge; experiment: Test Example 3: herbicidal effect by foliage application, Wagner pot (Table 18, symbol E); type: in vivo, rice flat sedge (Cyperus iria)
In short: as §3

[12] = system: windgrass; experiment: Test Example 5: herbicidal effect by foliage application, plastic box (Table 20, symbol L); type: in vivo, windgrass (Apera spica-venti); details: evaluated three weeks after application
In short: as §2

[13] = system: chickweed; experiment: Test Example 5: herbicidal effect by foliage application, plastic box (Table 20, symbol P); type: in vivo, common chickweed (Stellaria media); details: evaluated three weeks after application
In short: as §2

[14] = system: barnyard grass; experiment: Test Example 4: herbicidal effect by soil treatment (Table 19, symbol H); type: in vivo, barnyard grass (Echinochloa crus-galli)
In short: as §1

[15] = system: velvetleaf; experiment: Test Example 5: herbicidal effect by foliage application, plastic box (Table 20, symbol M); type: in vivo, velvetleaf (Abutilon theophrasti); details: evaluated three weeks after application
In short: as §2

[16] = system: lambsquarters; experiment: Test Example 4: herbicidal effect by soil treatment (Table 19, symbol O); type: in vivo, lambsquarters (Chenopodium album)
In short: as §1

[17] = system: velvetleaf; experiment: Test Example 4: herbicidal effect by soil treatment (Table 19, symbol M); type: in vivo, velvetleaf (Abutilon theophrasti)
In short: as §1

[18] = system: southern crabgrass; experiment: Test Example 5: herbicidal effect by foliage application, plastic box (Table 20, symbol F); type: in vivo, southern crabgrass (Digitaria ciliaris); details: evaluated three weeks after application
In short: as §2

[19] = system: persian speedwell; experiment: Test Example 5: herbicidal effect by foliage application, plastic box (Table 20, symbol R); type: in vivo, Persian speedwell (Veronica persica); details: evaluated three weeks after application
In short: as §2

[20] = system: Chinese sprangletop; experiment: Test Example 3: herbicidal effect by foliage application, Wagner pot (Table 18, symbol D); type: in vivo, chinese sprangletop (Leptochloa chinensis)
In short: as §3

[21] = system: green foxtail; experiment: Test Example 4: herbicidal effect by soil treatment (Table 19, symbol G); type: in vivo, green foxtail (Setaria viridis)
In short: as §1

[22] = system: green foxtail; experiment: Test Example 5: herbicidal effect by foliage application, plastic box (Table 20, symbol G); type: in vivo, green foxtail (Setaria viridis); details: evaluated three weeks after application
In short: as §2

[23] = system: wild oat; experiment: Test Example 5: herbicidal effect by foliage application, plastic box (Table 20, symbol I); type: in vivo, wild oat (Avena fatua); details: evaluated three weeks after application
In short: as §2

[24] = system: redroot pigweed; experiment: Test Example 5: herbicidal effect by foliage application, plastic box (Table 20, symbol N); type: in vivo, redroot pigweed (Amaranthus retroflexus); details: evaluated three weeks after application
In short: as §2

[25] = system: southern crabgrass; experiment: Test Example 4: herbicidal effect by soil treatment (Table 19, symbol F); type: in vivo, southern crabgrass (Digitaria ciliaris)
In short: as §1

[26] = system: blackgrass; experiment: Test Example 5: herbicidal effect by foliage application, plastic box (Table 20, symbol J); type: in vivo, blackgrass (Alopecurus myosuroides); details: evaluated three weeks after application
In short: as §2

[27] = amount of applied herbicide 310 g/ha
[28] = foliage application, AAH 310 g/ha
[29] = amount of applied herbicide 320 g/ha
[30] = 320 g/ha, foliage application after 14-day growth

Question: What does the source list for `Cc1nn(C)c(=O)c(-c2c(-c3ccc(OC(F)F)cc3)sc3ccc(F)cc23)c1OC(=S)Oc1ccccc1` [2-297]?
Answer: herbicidal effect on K: Italian ryegrass [1, 27]: 5 (Herbicidal rate of 90% or more (almost completely withered)); herbicidal effect on I: wild oat [2, 27]: 0 (Herbicidal rate of 5% or less (almost no effect)); herbicidal effect on N: redroot pigweed [3, 27]: 5 (Herbicidal rate of 90% or more (almost completely withered)); herbicidal effect on L: windgrass [4, 27]: 0 (Herbicidal rate of 5% or less (almost no effect)); herbicidal effect on J: blackgrass [5, 27]: 3 (Herbicidal rate of 40% or more and less than 70%); herbicidal effect on Q: false cleavers [6, 27]: 0 (Herbicidal rate of 5% or less (almost no effect)); O: lambsquarters, herbicidal effect (criteria 0-5) [7, 28]: 5 (Herbicidal rate of 90% or more (almost completely withered)); K: Italian ryegrass, herbicidal effect (criteria 0-5) [8, 28]: 5 (Herbicidal rate of 90% or more (almost completely withered)); H: barnyard grass, herbicidal effect (criteria 0-5) [9, 28]: 5 (Herbicidal rate of 90% or more (almost completely withered)); herbicidal effect on H: barnyard grass [10, 27]: 5 (Herbicidal rate of 90% or more (almost completely withered)); herbicidal effect on E: rice flat sedge [11, 27]: 5 (Herbicidal rate of 90% or more (almost completely withered)); L: windgrass, herbicidal effect (criteria 0-5) [12, 28]: 0 (Herbicidal rate of 5% or less (almost no effect)); P: chickweed, herbicidal effect (criteria 0-5) [13, 28]: 5 (Herbicidal rate of 90% or more (almost completely withered)); herbicidal effect on H: barnyard grass [14, 27]: 4 (Herbicidal rate of 70% or more and less than 90%); M: velvetleaf, herbicidal effect (criteria 0-5) [15, 28]: 5 (Herbicidal rate of 90% or more (almost completely withered)); herbicidal effect on O: lambsquarters [16, 27]: 5 (Herbicidal rate of 90% or more (almost completely withered)); herbicidal effect on M: velvetleaf [17, 27]: 5 (Herbicidal rate of 90% or more (almost completely withered)); F: southern crabgrass, herbicidal effect (criteria 0-5) [18, 28]: 1 (Herbicidal rate of 5% or more and less than 20%); R: persian speedwell, herbicidal effect (criteria 0-5) [19, 28]: 5 (Herbicidal rate of 90% or more (almost completely withered)); herbicidal effect on D: Chinese sprangletop [20, 27]: 0 (Herbicidal rate of 5% or less (almost no effect)); herbicidal effect on G: green foxtail [21, 27]: 4 (Herbicidal rate of 70% or more and less than 90%); G: green foxtail, herbicidal effect (criteria 0-5) [22, 28]: 5 (Herbicidal rate of 90% or more (almost completely withered)); I: wild oat, herbicidal effect (criteria 0-5) [23, 28]: 2 (Herbicidal rate of 20% or more and less than 40%); N: redroot pigweed, herbicidal effect (criteria 0-5) [24, 28]: 5 (Herbicidal rate of 90% or more (almost completely withered)); herbicidal effect on F: southern crabgrass [25, 27]: 3 (Herbicidal rate of 40% or more and less than 70%); J: blackgrass, herbicidal effect (criteria 0-5) [26, 28]: 3 (Herbicidal rate of 40% or more and less than 70%)

Question: What does the source list for `Cc1nn(C)c(=O)c(-c2c(-c3ccc(Cl)cc3)sc3c(Cl)cccc23)c1O` [4-017]?
Answer: Herbicidal effect by soil treatment, K: Italian ryegrass [1, 29]: 0 (Herbicidal rate of 5% or less (almost no effect)); Herbicidal effect by soil treatment, I: wild oat [2, 29]: 0 (Herbicidal rate of 5% or less (almost no effect)); Herbicidal effect by soil treatment, N: redroot pigweed [3, 29]: 0 (Herbicidal rate of 5% or less (almost no effect)); Herbicidal effect by soil treatment, L: windgrass [4, 29]: 2 (Herbicidal rate of 20% or more and less than 40%); Herbicidal effect by soil treatment, J: blackgrass [5, 29]: 0 (Herbicidal rate of 5% or less (almost no effect)); Herbicidal effect by soil treatment, Q: false cleavers [6, 29]: 0 (Herbicidal rate of 5% or less (almost no effect)); herbicidal effect on O: lambsquarters (evaluation grade 0-5) [7, 30]: 2 (Herbicidal rate of 20% or more and less than 40%); herbicidal effect on K: Italian ryegrass (evaluation grade 0-5) [8, 30]: 1 (Herbicidal rate of 5% or more and less than 20%); herbicidal effect on H: barnyard grass (evaluation grade 0-5) [9, 30]: 0 (Herbicidal rate of 5% or less (almost no effect)); herbicidal effect on barnyard grass (H) ([10]; 320 g/ha): 4 (Herbicidal rate of 70% or more and less than 90%); herbicidal effect on rice flat sedge (E) ([11]; 320 g/ha): 3 (Herbicidal rate of 40% or more and less than 70%); herbicidal effect on L: windgrass (evaluation grade 0-5) [12, 30]: 4 (Herbicidal rate of 70% or more and less than 90%); herbicidal effect on P: chickweed (evaluation grade 0-5) [13, 30]: 5 (Herbicidal rate of 90% or more (almost completely withered)); Herbicidal effect by soil treatment, H: barnyard grass [14, 29]: 0 (Herbicidal rate of 5% or less (almost no effect)); herbicidal effect on M: velvetleaf (evaluation grade 0-5) [15, 30]: 4 (Herbicidal rate of 70% or more and less than 90%); Herbicidal effect by soil treatment, O: lambsquarters [16, 29]: 0 (Herbicidal rate of 5% or less (almost no effect)); Herbicidal effect by soil treatment, M: velvetleaf [17, 29]: 0 (Herbicidal rate of 5% or less (almost no effect)); herbicidal effect on F: southern crabgrass (evaluation grade 0-5) [18, 30]: 0 (Herbicidal rate of 5% or less (almost no effect)); herbicidal effect on R: persian speedwell (evaluation grade 0-5) [19, 30]: 4 (Herbicidal rate of 70% or more and less than 90%); herbicidal effect on Chinese sprangletop (D) ([20]; 320 g/ha): 0 (Herbicidal rate of 5% or less (almost no effect)); Herbicidal effect by soil treatment, G: green foxtail [21, 29]: 0 (Herbicidal rate of 5% or less (almost no effect)); herbicidal effect on G: green foxtail (evaluation grade 0-5) [22, 30]: 0 (Herbicidal rate of 5% or less (almost no effect)); herbicidal effect on I: wild oat (evaluation grade 0-5) [23, 30]: 3 (Herbicidal rate of 40% or more and less than 70%); herbicidal effect on N: redroot pigweed (evaluation grade 0-5) [24, 30]: 5 (Herbicidal rate of 90% or more (almost completely withered)); Herbicidal effect by soil treatment, F: southern crabgrass [25, 29]: 0 (Herbicidal rate of 5% or less (almost no effect)); herbicidal effect on J: blackgrass (evaluation grade 0-5) [26, 30]: 3 (Herbicidal rate of 40% or more and less than 70%)
